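1) Cells in 96-well plates. 2) Compound, 48 h, 5 concentrations. 3) Linear interpolation between surrounding doses. 4) Unreached endpoint = highest concentration. GI50: concentration for 50% inhibition of growth.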 The source made the active and inactive calls. No stated cut-off is given here; in the data, active = GI50 up to about 1.1 µM and inactive = higher.
How the values were obtained:
Assay in all cases: NCI tumour cell line growth inhibition, 48 h
CAKI-1 = test system: CAKI-1
DU-145 = test system: DU-145
EKVX = test system: EKVX
HCT-116 = test system: HCT-116
HL-60 = test system: HL-60
HT-29 = test system: HT-29
Hs-578T = test system: Hs-578T
IGROV-1 = test system: IGROV-1
LOX IMVI = test system: LOX IMVI
MDA-MB-231 = test system: MDA-MB-231
MDA-MB-435 = test system: MDA-MB-435
Malme-3M = test system: Malme-3M
NCI-H23 = test system: NCI-H23
OVCAR-4 = test system: OVCAR-4
PC-3 = test system: PC-3
RPMI-8226 = test system: RPMI-8226
SF-295 = test system: SF-295
SF-539 = test system: SF-539
SNB-75 = test system: SNB-75
T47D = test system: T47D

SMILES	GI50 (CAKI-1)	GI50 (DU-145)	GI50 (EKVX)	GI50 (HCT-116)	GI50 (HL-60)	GI50 (HT-29)	GI50 (Hs-578T)	GI50 (IGROV-1)	GI50 (LOX IMVI)	GI50 (MDA-MB-231)	GI50 (MDA-MB-435)	GI50 (Malme-3M)	GI50 (NCI-H23)	GI50 (OVCAR-4)	GI50 (PC-3)	GI50 (RPMI-8226)	GI50 (SF-295)	GI50 (SF-539)	GI50 (SNB-75)	GI50 (T47D)
CC(=O)O[C@H]1CC[C@]2(C=O)[C@H]3CC[C@]4(C)[C@@H](C5=CC(=O)OC5)CC[C@]4(O)[C@@H]3CC[C@]2(O)C1 [STROPHANTHIDIN ACETATE]	0.0536 µM (active)	0.164 µM (active)	0.225 µM (active)	0.11 µM (active)	0.344 µM (active)	0.212 µM (active)	0.45 µM (active)	0.31 µM (active)	0.222 µM (active)	0.769 µM (active)	0.272 µM (active)	0.231 µM (active)	0.111 µM (active)	0.0998 µM (active)	0.264 µM (active)	0.313 µM (active)	0.175 µM (active)	0.13 µM (active)	0.601 µM (active)	0.407 µM (active)
O=c1c(C(c2ccccn2)c2c(O)oc3cc(O)ccc3c2=O)c(O)oc2cc(O)ccc12	> 100 µM (inactive)	> 100 µM (inactive)	> 100 µM (inactive)	> 100 µM (inactive)	–	> 100 µM (inactive)	> 100 µM (inactive)	> 100 µM (inactive)	> 100 µM (inactive)	> 100 µM (inactive)	> 100 µM (inactive)	–	> 100 µM (inactive)	–	> 100 µM (inactive)	> 100 µM (inactive)	> 100 µM (inactive)	> 100 µM (inactive)	66.2 µM (inactive)	> 100 µM (inactive)
CCOC(=O)C(C(C)=O)C1CC=CC1 (stereo unspecified)	> 100 µM (inactive)	–	> 100 µM (inactive)	> 100 µM (inactive)	> 100 µM (inactive)	> 100 µM (inactive)	–	> 100 µM (inactive)	> 100 µM (inactive)	–	–	> 100 µM (inactive)	–	> 100 µM (inactive)	–	> 100 µM (inactive)	> 100 µM (inactive)	–	> 100 µM (inactive)	–
O=C1CCCCN1	> 1120 µM (inactive)	–	> 258 µM (inactive)	> 1120 µM (inactive)	706 µM (inactive)	> 1120 µM (inactive)	–	> 1120 µM (inactive)	> 1120 µM (inactive)	–	–	> 1120 µM (inactive)	> 1120 µM (inactive)	> 1120 µM (inactive)	–	> 1120 µM (inactive)	> 1120 µM (inactive)	> 1120 µM (inactive)	> 1120 µM (inactive)	–
O=c1[nH]c(=O)n(C2CC(O)C(CO)O2)cc1C#Cc1cc(C(F)(F)F)cc(C(F)(F)F)c1 (stereo unspecified)	> 100 µM (inactive)	–	40.3 µM (inactive)	> 22.8 µM (inactive)	> 60.4 µM (inactive)	> 31.8 µM (inactive)	–	> 36.4 µM (inactive)	> 25.5 µM (inactive)	–	–	34.8 µM (inactive)	24.4 µM (inactive)	> 29.4 µM (inactive)	–	> 29.6 µM (inactive)	17.3 µM (inactive)	26.5 µM (inactive)	21.1 µM (inactive)	–
O=c1cc(-c2nc3ccccc3[nH]2)[nH]c2nc(-c3nc4ccccc4[nH]3)cc(-c3ccc(Cl)cc3)c12	21.9 µM (inactive)	32.8 µM (inactive)	23.3 µM (inactive)	17 µM (inactive)	24.9 µM (inactive)	20 µM (inactive)	30.5 µM (inactive)	1.42 µM (inactive)	15.5 µM (inactive)	15.8 µM (inactive)	15.7 µM (inactive)	23 µM (inactive)	40.2 µM (inactive)	26.1 µM (inactive)	19.5 µM (inactive)	11.5 µM (inactive)	21.5 µM (inactive)	15.9 µM (inactive)	–	14.4 µM (inactive)
O=C1Cc2c(-c3ccccc3)cc(-c3ccccc3)nc2-c2ccccc2N1	3.64 µM (inactive)	5.82 µM (inactive)	13.2 µM (inactive)	2.24 µM (inactive)	75.9 µM (inactive)	3.61 µM (inactive)	4.07 µM (inactive)	18.6 µM (inactive)	4.37 µM (inactive)	3.48 µM (inactive)	15.9 µM (inactive)	9.79 µM (inactive)	6.65 µM (inactive)	–	8.69 µM (inactive)	39.7 µM (inactive)	3.17 µM (inactive)	11 µM (inactive)	2.59 µM (inactive)	10.9 µM (inactive)
CC(=O)N1N=C(c2ccc3ccccc3c2O)CC1c1cccs1 (stereo unspecified)	20.1 µM (inactive)	34 µM (inactive)	–	9.89 µM (inactive)	–	21.9 µM (inactive)	28.6 µM (inactive)	11.4 µM (inactive)	–	20.6 µM (inactive)	18 µM (inactive)	10.4 µM (inactive)	20.3 µM (inactive)	27.8 µM (inactive)	11.1 µM (inactive)	6.55 µM (inactive)	21.7 µM (inactive)	22.2 µM (inactive)	25.5 µM (inactive)	11.6 µM (inactive)
O=NN1C(c2ccccc2)CNC(=O)CC1c1ccccc1 (stereo unspecified)	59.6 µM (inactive)	–	35.4 µM (inactive)	38.5 µM (inactive)	21.9 µM (inactive)	28.6 µM (inactive)	–	63.5 µM (inactive)	46.7 µM (inactive)	–	–	50.9 µM (inactive)	33.1 µM (inactive)	52.8 µM (inactive)	–	34 µM (inactive)	32.7 µM (inactive)	35.4 µM (inactive)	20.8 µM (inactive)	–
NC12CCC(CC1=O)C2 (stereo unspecified)	–	> 100 µM (inactive)	> 100 µM (inactive)	> 100 µM (inactive)	> 100 µM (inactive)	> 100 µM (inactive)	> 100 µM (inactive)	> 100 µM (inactive)	> 100 µM (inactive)	> 100 µM (inactive)	> 100 µM (inactive)	> 100 µM (inactive)	> 100 µM (inactive)	> 100 µM (inactive)	> 100 µM (inactive)	> 100 µM (inactive)	> 100 µM (inactive)	> 100 µM (inactive)	> 100 µM (inactive)	> 100 µM (inactive)
O=C1CSC(C(/N=N/c2ccc(Cl)cc2)c2nc3ccccc3[nH]2)=N1 (stereo unspecified)	> 100 µM (inactive)	–	91.2 µM (inactive)	> 100 µM (inactive)	51.6 µM (inactive)	> 100 µM (inactive)	–	–	–	–	–	> 100 µM (inactive)	63 µM (inactive)	> 100 µM (inactive)	–	> 100 µM (inactive)	38.8 µM (inactive)	23.4 µM (inactive)	25.6 µM (inactive)	–
COc1ccc(-c2c3c(nc4nc(SC)nc(SC)c24)CCCC3)cc1OC	67.9 µM (inactive)	> 100 µM (inactive)	70 µM (inactive)	44.4 µM (inactive)	25.1 µM (inactive)	36.6 µM (inactive)	19.1 µM (inactive)	> 100 µM (inactive)	46.6 µM (inactive)	40.6 µM (inactive)	54.3 µM (inactive)	42.5 µM (inactive)	> 100 µM (inactive)	–	60 µM (inactive)	45.8 µM (inactive)	57.5 µM (inactive)	> 100 µM (inactive)	28.2 µM (inactive)	47.6 µM (inactive)

— ChEMBL document CHEMBL1201862, “PubChem BioAssay data set” (2004)
